Patent US8901072B2, “Glycopeptide and lipoglycopeptide antibiotics with improved solubility” (The Medicines Company, priority 2009, dated 2014)
Converted amounts (≈) assume the structure as drawn.

Key:
[1] = Solubility in phosphate buffered saline; assay type: physicochemical; conditions: pH 7.4
Experimental: To a sample of the material of known mass were added known volumes of phosphate buffered saline until complete dissolution is observed. Suspensions were centrifuged for 5 min at 10000 rpm. […] Upon complete dissolution, the solution is diluted until the final concentration is 0.5 mg/mL to ensure that the material remains soluble over the entire range of concentrations.

S. aureus ATCC 13709 = assay: In vitro antibacterial susceptibility (MIC, broth microdilution); assay type: cell-based; conditions: for MIC against S. aureus ATCC 13709, CAMHB: cation-adjusted Mueller-Hinton broth, 37° C., 18 h; for Antibacterial activity compared with oritavancin 5: deduced from the MIC data of Table 2
Experimental: Susceptibility of S. aureus strain ATCC13709 to oritavancin (5) and synthesized compounds was determined following the guidelines set by the Clinical and Laboratory Standards Institute (formerly the National Committee for Clinical Laboratory Standards) (M26-A). Compounds were serially diluted two-fold in either DMSO (Oritavancin 5) or in PBS and transferred to cation-adjusted Mueller Hinton broth (CAMHB; Becton Dickinson). 50 μL of compounds diluted in CAMHB was mixed with 100 μL of bacteria diluted in CAMHB in 96-well microtiter plates. The final number of micro-organisms in the assay was 5×10^5 c.f.u. per mL and the final concentration of DMSO in the assay, if present, was 1.25%. All solutions may contain 0.002% Tween as indicated. Assays were set up in duplicate and incubated at 37° C. for 18 h. The concentration of compound that inhibited visible growth was reported as the minimum inhibitory concentration (MIC).

[2] = 10 mM phosphate buffered saline (0.138 M NaCl, 2.7 mM KCl)

Structure (SMILES) | Solubility (mg/mL) PBS [1] | Solubility (mg/mL) PBS [1, 2] | MIC against S. aureus ATCC 13709, CAMHB + 0.002% tween (S. aureus ATCC 13709) | MIC against S. aureus ATCC 13709, CAMHB + 50% human serum (S. aureus ATCC 13709) | MIC against S. aureus ATCC 13709, CAMHB + 50% mouse serum (S. aureus ATCC 13709) | MIC against S. aureus ATCC 13709, CAMHB + 50% rat serum (S. aureus ATCC 13709) | MIC against S. aureus ATCC 13709, CAMHB (S. aureus ATCC 13709) | Antibacterial activity compared with oritavancin 5 (S. aureus ATCC 13709)
CC(=O)[O-].CNC(CC(C)C)C(=O)NC1C(=O)NC(CC(N)=O)C(=O)NC2C(=O)NC3C(=O)NC(C(=O)NC(C(=O)SCC[N+](C)(C)C)c4cc(O)cc(O)c4-c4cc3ccc4O)C(OC3CC(C)(N)C(O)C(C)O3)c3ccc(c(Cl)c3)Oc3cc2cc(c3OC2OC(CO)C(O)C(O)C2OC2CC(C)(NCc3ccc(-c4ccc(Cl)cc4)cc3)C(O)C(C)O2)Oc2ccc(cc2Cl)C1O (stereo not drawn) [98 (acetate salt)] | 20 mg/mL |  |  |  |  |  |  | 
CC(C)CC(C(=O)NC1C(=O)NC(CC(N)=O)C(=O)NC2C(=O)NC3C(=O)NC(C(=O)NC(C(=O)O)c4cc(O)cc(O)c4-c4cc3ccc4O)C(OC3CC(C)(N)C(O)C(C)O3)c3ccc(c(Cl)c3)Oc3cc2cc(c3OC2OC(CO)C(O)C(O)C2OC2CC(C)(NCc3ccc(-c4ccc(Cl)cc4)cc3)C(O)C(C)O2)Oc2ccc(cc2Cl)C1O)N(C)C(=O)OCOC(=O)CCC(=O)O (stereo not drawn) [Compound 7] |  | <0.5 mg/mL | 0.125 µg/mL | 0.5 µg/mL | 0.5 µg/mL | 0.25 µg/mL | 2 µg/mL (≈ 1.02 µM) | within an order of magnitude of that of oritavancin 5
CC(C)CC(C(=O)NC1C(=O)NC(CC(N)=O)C(=O)NC2C(=O)NC3C(=O)NC(C(=O)NC(C(=O)O)c4cc(O)cc(O)c4-c4cc3ccc4O)C(OC3CC(C)(N)C(O)C(C)O3)c3ccc(c(Cl)c3)Oc3cc2cc(c3OC2OC(CO)C(O)C(O)C2OC2CC(C)(NCc3ccc(-c4ccc(Cl)cc4)cc3)C(O)C(C)O2)Oc2ccc(cc2Cl)C1O)N(C)C(=O)CCC(=O)N(CC(=O)O)CC(=O)O (stereo not drawn) [Compound 13] |  | 5.5 mg/mL (≈ 2740 µM) | 2 µg/mL | 64 µg/mL | 64 µg/mL | 32 µg/mL | 4 µg/mL (≈ 1.99 µM) | weaker activities
CC(C)CC(C(=O)NC1C(=O)NC(CC(N)=O)C(=O)NC2C(=O)NC3C(=O)NC(C(=O)NC(C(=O)O)c4cc(O)cc(O)c4-c4cc3ccc4O)C(OC3CC(C)(N)C(O)C(C)O3)c3ccc(c(Cl)c3)Oc3cc2cc(c3OC2OC(CO)C(O)C(O)C2OC2CC(C)(NCc3ccc(-c4ccc(Cl)cc4)cc3)C(O)C(C)O2)Oc2ccc(cc2Cl)C1O)N(C)C(=O)OCOC(=O)CCC(=O)N(CC(=O)O)CC(=O)O (stereo not drawn) [Compound 20] |  | 5.5 mg/mL (≈ 2640 µM) | 4 µg/mL | 16 µg/mL | 16 µg/mL | 2 µg/mL | 4 µg/mL (≈ 1.92 µM) | weaker activities
CNC(CC(C)C)C(=O)NC1C(=O)NC(CC(N)=O)C(=O)NC2C(=O)NC3C(=O)NC(C(=O)NC(C(=O)NCCCNCCCCNCCCN)c4cc(O)cc(O)c4-c4cc3ccc4O)C(OC3CC(C)(N)C(O)C(C)O3)c3ccc(c(Cl)c3)Oc3cc2cc(c3OC2OC(CO)C(O)C(O)C2OC2CC(C)(NCc3ccc(-c4ccc(Cl)cc4)cc3)C(O)C(C)O2)Oc2ccc(cc2Cl)C1O (stereo not drawn) [Compound 24] |  | ≧100 mg/mL | 0.5 µg/mL | 1 µg/mL | 0.06 µg/mL | 0.06 µg/mL | 1 µg/mL (≈ 0.506 µM) | within an order of magnitude of that of oritavancin 5
CNC(CC(C)C)C(=O)NC1C(=O)NC(CC(N)=O)C(=O)NC2C(=O)NC3C(=O)NC(C(=O)NC(C(=O)OCC(=O)NCCCNCCCCNCCCN)c4cc(O)cc(O)c4-c4cc3ccc4O)C(OC3CC(C)(N)C(O)C(C)O3)c3ccc(c(Cl)c3)Oc3cc2cc(c3OC2OC(CO)C(O)C(O)C2OC2CC(C)(NCc3ccc(-c4ccc(Cl)cc4)cc3)C(O)C(C)O2)Oc2ccc(cc2Cl)C1O (stereo not drawn) [Compound 28] |  | ≧100 mg/mL | 0.125 µg/mL | 0.25 µg/mL | 0.25 µg/mL | 0.063 µg/mL | 2 µg/mL (≈ 0.983 µM) | within an order of magnitude of that of oritavancin 5
